Measured values: article PMC3917282, “Alkaloids from the Mangrove-Derived Actinomycete Jishengella endophytica 161111” (Marine Drugs, 2014)
In brackets after ≈: the same amount, converted by molar mass. Like-named read-outs stand apart in the source and are kept apart here.

How the values were obtained:
[1] = test system: influenza virus (A/Puerto Rico/8/34 (H1N1), PR/8); experiment: organism not typed; type: cell-based; conditions: for IC50: read-out: IC50 against H1N1 (CPE inhibition); for selectivity index (SI): H1N1 IC50 and MDCK CC50
in vitro = conditions: dog
[2] = MDCK cells infected with A/Puerto Rico/8/34 (H1N1), 48 h post-infection, crystal violet staining

Molecule | IC50 [1, 2] | further results
O=C(O)c1cc2c([nH]c3ccccc32)c(-c2ccc(CO)o2)n1 [Compound 7, flazin] | > 50 mg/L | –
CC(C)[C@H]1C(=O)OCc2ccc(C=O)n21 [Compound 4, (S)-4-isopropyl-3-oxo-3,4-dihydro-1H-pyrrolo[2,1-c][1,4]oxazine-6-carbaldehyde] | > 50 mg/L | –
O=Cc1c[nH]c2ccccc12 [Compound 11, 1H-indole-3-carboxaldehyde] | 45.9 mg/L (≈ 316 µM) | selectivity index (SI) [1]: 11.4; CC50 at 36 h (in vitro): 522 ± 24.5 mg/L (≈ 3600 µM)
Cc1cc2nc3[nH]c(=O)[nH]c(=O)c3nc2cc1C [Compound 10, lumichrome] | – | IC50 ([1]; MDCK, 48 h): 39.7 mg/L (≈ 164 µM)
O=Cc1ccc2n1[C@@H](Cc1ccccc1)C(=O)OC2 [Compound 6, (S)-4-benzyl-3-oxo-3,4-dihydro-1H-pyrrolo[2,1-c][1,4]oxazine-6-carbaldehyde] | > 50 mg/L | –
O=C(CO)c1c[nH]c2ccccc12 [Compound 12, 2-hydroxy-1-(1H-indol-3-yl)ethanone] | > 50 mg/L | –
Oc1nccc2c1[nH]c1ccccc12 [Compound 9, 1-hydroxy-β-carboline] | 25 mg/L (≈ 136 µM) | selectivity index (SI) [1]: 16.1; CC50 at 36 h (in vitro): 403 ± 31.4 mg/L (≈ 2190 µM)
CC(C)C[C@H]1C(=O)OCc2ccc(C=O)n21 [Compound 3, (S)-4-isobutyl-3-oxo-3,4-dihydro-1H-pyrrolo[2,1-c][1,4]oxazine-6-carbaldehyde] | > 50 mg/L | –
(4S)-4-(2-methylbutyl)-3-oxo-3,4-dihydro-1H-pyrrolo[2,1-c][1,4]oxazine-6-carbaldehyde [Compound 5] | – | IC50 against H1N1 (CPE inhibition) [1, 2]: > 50 mg/L
COCc1ccc(C=O)[nH]1 [Compound 13, 5-(methoxymethyl)-1H-pyrrole-2-carbaldehyde] | > 50 mg/L | –
OC[C@H](O)[C@@H](O)Cc1cncc(-c2ccco2)n1 [Compound 1, 2-(furan-2-yl)-6-(2S,3S,4-trihydroxybutyl)pyrazine] | > 50 mg/L | –
OC[C@H](O)[C@@H](O)Cc1cnc(-c2ccco2)cn1 [Compound 2, 2-(furan-2-yl)-5-(2S,3S,4-trihydroxybutyl)pyrazine] | > 50 mg/L | –
NC(=O)c1ncn([C@@H]2O[C@H](CO)[C@@H](O)[C@H]2O)n1 [Ribavirin, ribavirin, reference compound] | 23.1 mg/L (≈ 94.6 µM) | selectivity index (SI) [1]: 32.2; CC50 at 36 h (in vitro): 744 ± 18.5 mg/L (≈ 3050 µM)
OCc1ccc(-c2nccc3c2[nH]c2ccccc23)o1 [Compound 8, perlolyrine] | 38.3 mg/L (≈ 145 µM) | selectivity index (SI) [1]: 3.0; CC50 at 36 h (in vitro): 116 ± 12.1 mg/L (≈ 440 µM)
